Values of other authors, collected in patent publication US20040158054A1, “Di-ribonucleotides as specific viral RNA-polymerase inhibitors for the treatment or prevention of viral infections” (priority 2003, published 2004).

Experiments:
[1] = test system: 6-mercaptopurine-resistant cancer cell lines
[2] = test system: neoplastic cells

O=P(O)(OC[C@H]1O[C@@H](n2cnc3c(=S)[nH]cnc32)[C@H](O)[C@@H]1O)OC[C@H]1O[C@@H](n2cnc3c(=S)nc[nH]c32)[C@H](O)[C@@H]1O [bis(thioinosine)-5′,5′-phosphate]
inhibition of 6-mercaptopurine-resistant cancer cell lines [1]: inhibit
fold more potent against neoplastic cells than 6-MP ([2]; relative to 6-MP): 240 fold
fold more potent against neoplastic cells than 6-MP riboside ([2]; relative to 6-MP riboside): 25 fold
